Patent publication US11098058B2, “Bicyclic ketone compounds and methods of use thereof” (Genentech, Inc., priority 2017, dated 2021)

Target: human RIP1 kinase domain (2-375) (Homo sapiens (Human), UniProt Q13546)
Settings: RIP1 kinase inhibition, tight-binding apparent Ki; 50 nM enzyme, 50 μM ATP, 2 hours incubation
Protocol: RIP1 Kinase Inhibition Assays (Biochemical Assay)
The ability of the receptor interacting protein kinase (RIPK1) to catalyze the hydrolysis of adenosine-5′-triphosphate (ATP) is monitored using the Transcreener ADP (adenosine-5′-diphosphate) assay (BellBrook Labs). Purified human RIP1 kinase domain (2-375) (50 nM) derived from a baculovirus-infected insect cell expression system is incubated with test compounds for 2 hours in 50 mM Hepes buffer (pH 7.5) containing 30 mM MgCl2, 1 mM dithiothreitol, 50 μM ATP, 0.002% Brij-35, and 0.5% dimethyl sulfoxide (DMSO). […] The tracer bound to the antibody is displaced by the ADP generated during the RIP1K reaction, which causes a decrease in fluorescence polarization that is measured by laser excitation at 633 nm with a FP microplate reader M1000. Fractional activity was plotted against test article concentration. Using Genedata Screener software (Genedata; Basel, Switzerland), the data were fit to the tight-binding apparent inhibition constant (Ki^app) Morrison equation [Williams, J. W. and Morrison, J. F. (1979) The kinetics of reversible tight-binding inhibition. […] The following equation was used to calculate fractional activity and Ki^app:
[formula] where [E]T and [I]T are the total concentrations of active enzyme and test article, respectively.

Sequence of human RIP1 kinase domain (2-375) (Q13546 2-375): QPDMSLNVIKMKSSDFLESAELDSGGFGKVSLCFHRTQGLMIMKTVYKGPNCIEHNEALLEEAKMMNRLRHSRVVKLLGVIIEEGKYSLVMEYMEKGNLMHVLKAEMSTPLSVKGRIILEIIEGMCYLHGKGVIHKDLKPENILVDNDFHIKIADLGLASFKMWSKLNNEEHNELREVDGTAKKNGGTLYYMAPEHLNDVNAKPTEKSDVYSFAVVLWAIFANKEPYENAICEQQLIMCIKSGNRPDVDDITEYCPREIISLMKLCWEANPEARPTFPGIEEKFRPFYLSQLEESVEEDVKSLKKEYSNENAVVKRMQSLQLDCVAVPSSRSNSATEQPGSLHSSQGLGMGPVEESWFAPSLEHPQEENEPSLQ

| Structure (SMILES) | Ki |
| --- | --- |
| O=C(c1nc2n(n1)[C@H](c1ccccc1Cl)CC2)C1CC1 (single isomer, unassigned) [Example 77] | 14 nM |
| O=C(c1nc2n(n1)[C@H](c1ccccc1)C[C@@H]2F)C1C2CC(F)(F)CC21 (single isomer, unassigned) [Example 80] | 33 nM |
| O=C(c1nc2n(n1)[C@H](c1ccccc1)C[C@@H]2F)C1CC2C(C1)C2(F)F (single isomer, unassigned) [Example 82] | 10 nM |
| N#CCC1(C(=O)c2nc3n(n2)[C@H](c2ccccc2)C[C@@H]3F)CC1 (single isomer, unassigned) [Example 83] | 3.7 nM |
| CO[C@H]1C[C@@H](c2ccccc2)n2nc(C(=O)C3CC3)nc21 (single isomer, unassigned) [Example 84] | 150 nM |
| O=C(c1nc2n(n1)[C@H](c1ccc(F)cc1)C[C@@H]2F)C1CC1 (single isomer, unassigned) [Example 85] | 9 nM |
| O=C(c1nc2n(n1)[C@H](c1ccccc1)C[C@@H]2O)C1CC1 (single isomer, unassigned) [Example 87] | 13 nM |
| O=C(c1nc2n(n1)[C@H](c1ccccc1)C[C@H]2O)C1CC1 (single isomer, unassigned) [Example 88] | 180 nM |
| C[C@H]1C[C@@H]1C(=O)c1nc2n(n1)[C@H](c1ccccc1)C[C@@H]2F (single isomer, unassigned) [Example 89] | 15 nM |
| C[C@@H]1C[C@H]1C(=O)c1nc2n(n1)[C@H](c1ccccc1)C[C@@H]2F (single isomer, unassigned) [Example 91] | 3.4 nM |
| CC[C@@H]1C[C@H](F)c2nc(C(=O)C3CC3)nn21 (single isomer, unassigned) [Example 92] | 870 nM |
| CCC[C@@H]1C[C@H](F)c2nc(C(=O)C3CC3)nn21 (single isomer, unassigned) [Example 93] | 41 nM |
| O=C(c1nc2n(n1)[C@H](c1c(F)cccc1F)C[C@@H]2F)C1CC1 (single isomer, unassigned) [Example 94] | 3.1 nM |
| N#CC1(C(=O)c2nc3n(n2)[C@H](c2ccccc2)C[C@@H]3F)CC1 (single isomer, unassigned) [Example 95] | 2.7 nM |
| O=C(c1nc2n(n1)[C@H](c1ccccc1)C[C@@H]2F)C1CC12CC2 (single isomer, unassigned) [Example 96] | 3.6 nM |
| O=C(c1nc2n(n1)[C@H](c1ccccc1)C[C@@H]2F)C1(c2ccccn2)CC1 (single isomer, unassigned) [Example 98] | 110 nM |
| O=C(c1nc2n(n1)[C@H](c1ccccc1)C[C@@H]2F)C1(C2CC2)CC1 (single isomer, unassigned) [Example 99] | 2.9 nM |
| O=C(c1nc2n(n1)[C@H](c1c(F)ccc(F)c1F)C[C@@H]2F)C1CC1 (single isomer, unassigned) [Example 102] | 3.6 nM |
| O=C(c1nc2n(n1)[C@H](c1cccc(F)c1F)C[C@@H]2F)C1CC1 (single isomer, unassigned) [Example 106] | 3.1 nM |
| O=C(c1nc2n(n1)[C@H](c1cc(F)cc(F)c1F)C[C@@H]2F)C1CC1 (single isomer, unassigned) [Example 107] | 3.9 nM |
| O=C(c1cc2n(n1)[C@H](c1ccccc1)C[C@@H]2F)C1CC1 (single isomer, unassigned) [Example 108] | 3.7 nM |
| O=C(c1nc2n(n1)[C@@H](c1ccccc1)C[C@H]2Cl)C1CC1 (single isomer, unassigned) [Example 115] | 790 nM |
| O=C(c1nc2n(n1)[C@H](c1ccccc1)C[C@@H]2Cl)C1CC1 (single isomer, unassigned) [Example 116] | 4 nM |
| O=C(c1nc2n(n1)[C@H](c1ccccc1)C[C@H]2Cl)C1CC1 (single isomer, unassigned) [Example 117] | 560 nM |
| N#Cc1ccccc1[C@@H]1C[C@H](F)c2nc(C(=O)C3CC3)nn21 (single isomer, unassigned) [Example 124] | 61 nM |
| O=C(c1nc2n(n1)[C@H](c1ccccc1)C[C@@H]2F)[C@@H]1C[C@H]2CC[C@@H]1O2 (single isomer, unassigned) [Example 140] | 150 nM |
